This is an account of results in ChEMBL document CHEMBL3272155, “Synthesis of beta-spiro[pyrrolidinoindolines], their binding to the glycine receptor, and in vivo biological acitivity” (J Med Chem, 1977).

Data set [1] deals with Mus musculus. The data set can be described thus: Induction of clonic convulsions in ip dosed COBS-CDI mouse measured after 3 hrs. It is filed as functional.
Data set [2] in a line: Toxicity in ip dosed COBS-CDI mouse assessed as mortality measured after 3 hrs. It is filed as organism-based. Conditions: in vivo.
For data set [3], the system named is Mus musculus. As to the kind of experiment: Induction of tonic convulsions in ip dosed COBS-CDI mouse measured after 3 hrs. The format is functional.
Data set [4] has as its target T1, Glycine receptor subunit alpha-1 (Rattus norvegicus, UniProt P07727).
T1 sequence (P07727 whole entry): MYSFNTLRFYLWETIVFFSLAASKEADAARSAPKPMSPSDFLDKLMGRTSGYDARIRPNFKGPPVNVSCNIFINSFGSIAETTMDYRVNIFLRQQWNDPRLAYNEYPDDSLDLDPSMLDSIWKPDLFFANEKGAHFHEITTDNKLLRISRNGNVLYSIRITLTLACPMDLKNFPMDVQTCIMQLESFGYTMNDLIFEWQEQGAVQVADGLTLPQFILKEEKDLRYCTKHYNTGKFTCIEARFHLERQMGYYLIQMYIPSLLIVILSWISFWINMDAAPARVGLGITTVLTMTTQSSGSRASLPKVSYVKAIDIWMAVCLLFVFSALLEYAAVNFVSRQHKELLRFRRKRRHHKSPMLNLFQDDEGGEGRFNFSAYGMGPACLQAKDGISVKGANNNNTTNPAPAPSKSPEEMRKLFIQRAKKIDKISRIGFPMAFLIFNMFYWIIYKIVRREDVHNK
The data set can be described thus: Displacement of [3H]Strychnine from glycine receptor in rat brain synaptic membranes. It is filed as cell membranes. A general note: Displacement assays read how much labelled ligand stays bound in the presence of the test substance.

On to `CC(=O)N1CC2(CCN(C)C2)c2ccccc21` (configuration not stated), for which the ED50 in the data set with Mus musculus [1] came to 79.6 µmol/kg; with Mus musculus [3], 83.9 µmol/kg. In addition, the LD50 at 3 h in data set [2] was determined as 94.8 µmol/kg. Besides, the IC50 in data set [4] turned out to be 23.6 µM.

On to `CC(=O)N1CC2(CCNC2)c2ccccc21.O=C(O)C(=O)O` (configuration not stated), for which the results for the ED50 with Mus musculus [1] and with Mus musculus [3] were 542 µmol/kg and 746 µmol/kg, respectively. Besides, the LD50 at 3 h in data set [2] is 687 µmol/kg. This compound also registered an IC50 in data set [4] of 295 µM.

As for `CN1CCC2(CNc3ccccc32)C1` (configuration not stated), the 50% effective dose (ED50) in the data set on Mus musculus [1] came to 365 µmol/kg; in the data set on Mus musculus [3], 412 µmol/kg. The median lethal dose (LD50) at 3 h in data set [2] was determined as 412 µmol/kg. Also, the half-inhibitory concentration (IC50) in data set [4] turned out to be 282 µM.

Regarding `CC(=O)N1CC2(CCN(Cc3ccccc3)C2)c2ccccc21.O=C(O)C(=O)O` (configuration not stated), the 50% effective dose (ED50) in the data set on Mus musculus [1] was 252 µmol/kg; in the data set on Mus musculus [3], over 1010 µmol/kg. In data set [2], the 50% lethal dose (LD50) at 3 h was 505 µmol/kg. In data set [4], this compound came in with an IC50 of 31 µM.

For the compound `CC(=O)N1CC2(CCCC2)c2ccccc21`, the ED50 with Mus musculus [1] was 1650 µmol/kg; with Mus musculus [3], over 7420 µmol/kg. In data set [2], the LD50 at 3 h was found to be 6880 µmol/kg. Further, the 50% inhibitory concentration (IC50) in data set [4] is over 1000 µM.

Turning to `CC(=O)N1c2ccccc2C(C)(C)C1C` (racemic), the 50% effective dose (ED50) was under 1970 µmol/kg with Mus musculus [1] and over 3940 µmol/kg with Mus musculus [3]. In addition, the LD50 at 3 h in data set [2] is 2830 µmol/kg. This compound also showed an IC50 in data set [4] of over 1000 µM.

With `CC(=O)N1CCc2ccccc21`, the ED50 with Mus musculus [1] and in the data set with Mus musculus [3] was over 2480 µmol/kg in each case. In addition, in data set [2], the LD50 at 3 h stood at 1400 µmol/kg. In data set [4], the IC50 is over 1000 µM.

Regarding `C=CCN1CCC2(C1)CN(C(C)=O)c1ccccc12.O=C(O)C(=O)O` (configuration not stated), the values for the ED50 in the data set on Mus musculus [1] and in the data set with Mus musculus [3] were 300 µmol/kg and 434 µmol/kg, respectively. For the same compound, the median lethal dose (LD50) at 3 h in data set [2] was 396 µmol/kg. In addition, the IC50 in data set [4] is 67.9 µM.

For orientation: ED50 means the dose at which the effect has come halfway, by size or by number of responders. High values mean weaker potency, low ones greater potency. For orientation: LD50 means the dose at which mortality reaches 50%. A word on the IC50: it is the midpoint of a concentration-inhibition curve. Read a low IC50 as greater potency in that assay.
